Where a SMILES comes first, the peptide text is derived from it. [ ]: non-standard residue; d: D form. Cya = N[C@@H](CS(=O)(=O)O)C(=O)O
Columns and labels:
[1] = test system: HUVEC cells; assay: In vitro vessel (tube) formation assay on Matrigel; format: cell-based, human
Experimental: First, 96-well plates were coated with 75 µL of Matrigel and left at room temperature for 15 min before being placed into 37 °C incubators for an additional 30 min. Then, D-ALG1001 was dissolved at twice the desired concentration and 50 µL of the drug solution was added to the wells. HUVEC cells were then added to each well at a density of 70,000 cells/cm^2. Live-cell images were taken at 12 h for analysis.
To compare the dose–response efficacy of free and D-ALG in a physiologically relevant model, we utilized an in vitro model of blood vessel formation. HUVEC cells were treated with a gradient concentration of D-ALG and ALG-1001 for 24 h at three different magnitudes of doses. The cells were then seeded on Matrigel after which cells naturally migrate to form blood vessel-like tubule structures. The images were analyzed with the Angiogenesis Analyzer plug-in on ImageJ to extract relevant metrics that measure the connectivity and integrity of tube networks (Figure 3A and Figure S8).
Figure 3 In vitro inhibition of vessel formation. (A) Image analysis of HUVECs seeded onto a Matrigel matrix using the Angiogenesis Analyzer plug-in for ImageJ. […]

[2] = test system: HUVEC cells; assay: Wound-healing (scratch) assay; format: cell-based, human; conditions: HUVEC monolayer pretreated 24 h; 24 h after injury; dose not stated
Experimental: HUVEC cells were seeded at a density of 5 × 10^4 cells per well in 24-well plates and set aside for at least 72 h for a uniform monolayer of cells to form. Cells were treated with D-ALG1001 and ALG-1001 for 24 h. A centimeter-long scratch was introduced to the cell monolayer with the tip of a 200 µL pipette tip. Images were taken on a Nikon
In addition to cell morphological and motility changes measured by tube formation assays, we investigated the activity of D-ALG and ALG-1001 in a wound-healing assay. Previous studies have utilized this method to assess cell migration and proliferation. Monolayers of HUVECs were pretreated with D-ALG or ALG-1001 followed by scratching the monolayer with a pipette tip. Images were taken at the time of the wound and at 24 h after injury. The proliferative activity of endothelial cells can be measured by the area that was healed postinjury to the monolayer. Untreated cells managed to heal up to 80% of the initial damage after 24 h, while cells treated with D-ALG and ALG-1001 healed up to 50% of the initial wound area. […] Because neovascularization is driven in part by the proliferation and migration of endothelial cells in the disease area, reductions in these activities as observed in cells treated with D-ALG can modulate endothelial cell contributions to the neovascularization process.

[3] = test system: phospho-ERK1/2 and phospho-FAK (Y397) in HUVEC cells; assay: Western blot of ERK and FAK pathway activation after VEGF stimulation; format: cell-based, human; conditions: 100 µM on a peptide basis, 24 h pretreatment, VEGF 5 min; trend
Experimental: HUVEC cells were seeded at a density of 5 × 10^4 cells per well in 24-well plates 24 h before treatment. Cells were treated with D-ALG1001 and ALG-1001 for 24 h before activation with VEGF for 5 min. Cells were collected and lysed for Western blotting using T-Per buffer (ThermoFisher) supplemented with PhosStop and proteinase inhibitor cocktail. Cells were lysed with Trizol and processed as previously described for qPCR analysis.
In brief, the concentration of protein was determined with the BCA protein assay kit (Thermo Scientific, Rockford, IL, USA). Equal amounts of protein were denatured and resolved on 4–15% TGX gels (Bio-Rad, Hercules, CA, USA). Gels were transferred to nitrocellulose membranes, blocked with 3% BSA at RT for 1 h and probed for GAPDH, FAK, pFAK, MAPK, and pMAPK at 4 °C overnight. Membranes were washed thrice before incubation with HRP-conjugated secondary antibodies followed by incubation with chemiluminescent substrate for visualization.
To elucidate the mechanism through which D-ALG and free ALG-1001 influence angiogenic function, we pretreated the cells with D-ALG and free ALG-1001 for 24 h. The cells were then stimulated with a high dose of exogenous VEGF for 5 min after which the samples were collected for Western blotting. […]

[4] = test system: VEGF-A expression in HUVEC; assay: VEGF-A expression by endothelial cells (qPCR); format: cell-based, human; conditions: HUVEC coincubated with VEGF-A
[5] = test system: IL1β and TNFα expression in RAW264.7 cells; assay: In vitro inflammation model, LPS-stimulated macrophages (qPCR); format: cell-based, Murine; conditions: 24 h pretreatment, LPS 3 h
[6] = test system: FAK, p-FAK (Y397), p44/42 ERK, phospho-p44/42 ERK in choroidal tissue; assay: ELISA of FAK and ERK pathway activation in choroid, laser CNV model; format: in vivo, Brown Norway rats; conditions: 150 µg peptide basis i.p. every 4 days
Experimental: (§1) On the day of CNV induction (Day 0), D-ALG1001 and ALG1001 was administered intraperitoneally at a dose of 150 µg on a peptide basis. Subsequent doses were administered every 4 days. At days 7 and 14, mice were sacrificed and enucleated. Eyes used for CNV image were fixed in 10% formalin for 1 h. Eyes used for qPCR, ELISA, and Western blotting were immediately stored at −80 °C until use.
In brief, 500 µL of T-Per supplemented with PhosStop and proteinase inhibitor cocktail was added to tubes containing dissected choroid. A scoop of 1.6 mm steel homogenization beads was added to each sample and then placed in TissueLyserLT (Qiagen, Germantown, MD, USA) at an oscillation frequency of 50 cycles/s for 15 min.
For protein extracted from tissues, total FAK and FAK (Phospho) [pY397] ELISA kits (Invitrogen) were used to quantify the level of protein expression, and the measured protein expression was normalized to the total protein amount of each sample as determined from BCA assays.
To evaluate the activation of FAK and ERK pathways, eyes were enucleated at set time points, and the choroidal tissue dissected out. Tissues were submerged in a mixture of T-per, proteinase inhibitor, and PhosStop with stainless-steel homogenization beads and homogenized to produce protein extracts. Total FAK, total ERK, p-FAK (Y397), and p-44/42 ERK ELISA kits were used to quantify the amount of total and phosphorylated proteins in FAK and ERK pathways. […] However, the level of total FAK protein in ALG-1001-treated animals was elevated at day 14.

[7] = test system: VEGF-A, TNFα, IL1β expression in choroid; assay: qPCR of VEGF-A, TNFα and IL1β in choroid, laser CNV model; format: in vivo, Brown Norway rats; conditions: 150 µg peptide basis i.p. every 4 days, days 7 and 14, trend
[8] = test system: choroidal neovascularization (CNV) area; assay: In vivo attenuation of CNV formation, intraperitoneal dosing, laser CNV model; parameters: species or system Brown Norway rats
Experimental: as §1
(§2) Eyes were mounted by introducing four radial relaxation cuts. […] All images were processed with ImageJ.
We then evaluated whether the improved protection and targeting of D-ALG allowed for less invasive administration routes. A laser was used to induce CNV at day 0, and the first dose (150 µg peptide basis) of ALG-1001 and D-ALG was administered intraperitoneally. The animals were dosed once every 4 days at 150 µg of peptide basis (7.5 mg/kg). Choroidal flatmounts of eyes at day 7 and 14 were imaged, and the CNV area was calculated using ImageJ.

[9] = test system: choroidal neovascularization (CNV) area; assay: In vivo attenuation of CNV formation, intravitreal injection, laser CNV model; parameters: species or system Brown Norway rats; conditions: intravitreal injection after CNV induction; day 7
Description: as §2
A Micron III SLO scope and a laser attachment were used to induce CNV formation in mice. The laser CNV model was chosen due to its consistency in creating CNV and the progression of the CNV process. We first evaluated whether dendrimer conjugation impeded the peptide from attenuating CNV by first injecting free ALG-1001 and D-ALG intravitreally after CNV induction. The eyes were then collected on day 7 and the CNV area quantified.

C[C@@H](O)[C@H](NC(=O)[C@H](CS(=O)(=O)O)NC(=O)CNC(=O)[C@H](CCCNC(=N)N)NC(=O)CN)C(=O)N1CCC[C@H]1C(=O)O [ALG-1001] (H-GRG[Cya]TP-OH; N-terminus and C-terminus assumed)
vessel formation compared to untreated cells ([1]; 1 mM, Angiogenesis Analyzer, ImageJ): significantly reduced vessel formation | vessel formation, effect of lower doses ([1]; doses below 1 mM): not effective | initial wound area healed [2]: up to 50% | phospho-ERK1/2 expression compared to untreated, VEGF stimulated controls [3]: lower levels | phospho-FAK expression compared to untreated, VEGF stimulated controls [3]: lower levels | VEGF production compared to the control [4]: did not have statistically significant increases | impact on IL1β production ([5]; high and low dose): no impact | reduction of TNFα expression ([5]; high dose 1 mM): 20% | total ERK ([6]; day 7): remained relatively constant | total ERK compared to untreated animals ([6]; day 14): slight trend in the reduction | total FAK protein ([6]; day 14): elevated | p-FAK protein compared to untreated controls ([6]; days 7 and 14): trend in the reduction | IL1β expression [7]: only reduced at day 14 | TNFα level (relative expression) [7]: lower TNFα levels across both time points | VEGF-A production (relative expression) [7]: lower VEGF-A production at 14 days only | reduction of CNV area on day 14 ([8]; 150 µg peptide basis (7.5 mg/kg) intraperitoneally every 4 days, choroidal flatmounts, ImageJ): 20% | CNV area at day 14 (in words) ([8]; 150 µg peptide basis intraperitoneally every 4 days): recovered | formation of CNV after intravitreal administration [9]: significantly inhibited the formation of CNV

Source: paper PMC10609940, “Systemic Dendrimer-Peptide Therapies for Wet Age-Related Macular Degeneration” (Pharmaceutics, 2023)
